Consider 2 molecules from PMC11187217, “Anti-adhesive, anti-biofilm and fungicidal action of newly synthesized gemini quaternary ammonium salts” (Scientific Reports, 2024).

One assay concerns C. albicans ATCC 10231. In words: Adhesion of C. albicans to glass surface. Type of assay: cell-based, Candida albicans. To be noted: 640 µM. On the procedure: The effect of gemini QAS on the adhesion of C. albicans ATCC 10231 was determined using a modification of the method of Obłąk et al.. […] After incubation, the culture was centrifuged (1000 rcf, 5 min), and the resulting pellet was suspended in PBS (pH 7.4) until OD = 0.8 (λ = 590 nm). • In the case of testing the polystyrene surface, 100 µl of tested gemini QAS at concentrations of 20–1280 µM was added to the wells of a 96-well titration plate, incubated for 2 h at 37 °C, rinsed with sterile distilled water, and then spotted with 100 µl of the obtained culture and incubated at 37 °C for 4 h. After this time, the culture was removed, the plates were rinsed with sterile distilled water and placed in an oven (60 °C, 20 min). Then, crystal violet (0.1%) was added to the wells of the titration plate, stained for 5 min and rinsed with sterile distilled water until all traces of violet were removed from the rinsed water. Then the washing mixture (1% SDS, 50 mmol HCl, 100% isopropanol) was added. The absorbance of the samples was read using a spectrophotometer (BioTek 800 TS Absorbance Reader) at λ = 590 nm. […] Next, the washing mixture (1% SDS, 50 mmol HCl, 100% isopropanol) was added and the absorbance of the samples was read using a spectrophotometer (BioTek 800 TS Absorbance Reader) at λ = 590 nm. […] After this time, the colonies growing on the plates were counted. […]

Assay [1] deals with C. albicans ATCC 10231 biofilm. As to the kind of experiment: Biofilm viability (LIVE/DEAD, confocal microscopy). Type of assay: cell-based, Candida albicans. To be noted: glass surface, SYTO 9 / propidium iodide. On the procedure:
The viability of the biofilm formed by C. albicans ATCC 10231 cells was determined using the Filmtracer LIVE/DEAD Biofilm Viability Kit (Invitrogen).
The C. albicans culture was incubated in YPG medium at 37 °C for 18 h. After incubation, the culture was centrifuged (1000 rcf, 5 min), and the resulting pellet was suspended in PBS (pH 7.4) to obtain an OD = 1.5 (λ = 590 nm). 100 µl of C. albicans cell suspension was placed into the wells of the chamber slide plate and incubated for 24 h at 37 °C. After this time, the culture was removed and the plate was rinsed with sterile mQ water. Then, 200 µl of selected tested surfactants in appropriate concentrations was added to each well and incubated for 4 h. After incubation, the plate was rinsed with PBS, 100 µl of the LIVE/DEAD probe was added, and it was incubated for 30 min in the dark. After this time, the probe was removed and the wells were rinsed twice with PBS. Then, 100 µl of 4% formaldehyde in PBS (pH 7.0) was added and it was incubated for 30 min in the dark. Formaldehyde was removed and the wells were rinsed twice with PBS. After peeling off the walls of the plate, a drop of 50% glycerol in PBS was placed on each field and a glass slide was placed on it. The viability of the biofilm formed by C. albicans cells was imaged using a confocal microscope. The negative control was PBS.

As to `CCCCCCCCCCCC(=O)N(CCCN(CCC[N+](C)(C)C)C(=O)CCCCCCCCCCC)CCC[N+](C)(C)C` [2xC12BrG3], in the assay with C. albicans ATCC 10231, the “Reduction of adhesion of C. albicans cells to glass” value is reported as “approximately 80%”.

As for `CCCCCCCCCCCCCCCC(=O)N(CCCN(CCC[N+](C)(C)C)C(=O)CCCCCCCCCCCCCCC)CCC[N+](C)(C)C` [2xC16BrG3], the “Impact on survival of C. albicans biofilm (membrane integrity)” value in assay [1] was “strong impact”.
